Laboratory results taken from ChEMBL document CHEMBL2074419, “Induction of multidrug resistance protein 3 in rat liver is associated with altered vectorial excretion of acetaminophen metabolites” (Drug Metab Dispos, 2003).

Tests used:
Assay type in all cases: functional, organism-based, Sprague-Dawley
[1] = biological target: T1, ATP-binding cassette sub-family C member 2 (Rattus norvegicus, UniProt Q63120); test: (§1) TP_TRANSPORTER: Western in vivo, liver of SD rat
[2] = biological target: T2, ATP-binding cassette sub-family C member 3 (Rattus norvegicus, UniProt O88563); test: as §1
T2 sequence (O88563 whole entry): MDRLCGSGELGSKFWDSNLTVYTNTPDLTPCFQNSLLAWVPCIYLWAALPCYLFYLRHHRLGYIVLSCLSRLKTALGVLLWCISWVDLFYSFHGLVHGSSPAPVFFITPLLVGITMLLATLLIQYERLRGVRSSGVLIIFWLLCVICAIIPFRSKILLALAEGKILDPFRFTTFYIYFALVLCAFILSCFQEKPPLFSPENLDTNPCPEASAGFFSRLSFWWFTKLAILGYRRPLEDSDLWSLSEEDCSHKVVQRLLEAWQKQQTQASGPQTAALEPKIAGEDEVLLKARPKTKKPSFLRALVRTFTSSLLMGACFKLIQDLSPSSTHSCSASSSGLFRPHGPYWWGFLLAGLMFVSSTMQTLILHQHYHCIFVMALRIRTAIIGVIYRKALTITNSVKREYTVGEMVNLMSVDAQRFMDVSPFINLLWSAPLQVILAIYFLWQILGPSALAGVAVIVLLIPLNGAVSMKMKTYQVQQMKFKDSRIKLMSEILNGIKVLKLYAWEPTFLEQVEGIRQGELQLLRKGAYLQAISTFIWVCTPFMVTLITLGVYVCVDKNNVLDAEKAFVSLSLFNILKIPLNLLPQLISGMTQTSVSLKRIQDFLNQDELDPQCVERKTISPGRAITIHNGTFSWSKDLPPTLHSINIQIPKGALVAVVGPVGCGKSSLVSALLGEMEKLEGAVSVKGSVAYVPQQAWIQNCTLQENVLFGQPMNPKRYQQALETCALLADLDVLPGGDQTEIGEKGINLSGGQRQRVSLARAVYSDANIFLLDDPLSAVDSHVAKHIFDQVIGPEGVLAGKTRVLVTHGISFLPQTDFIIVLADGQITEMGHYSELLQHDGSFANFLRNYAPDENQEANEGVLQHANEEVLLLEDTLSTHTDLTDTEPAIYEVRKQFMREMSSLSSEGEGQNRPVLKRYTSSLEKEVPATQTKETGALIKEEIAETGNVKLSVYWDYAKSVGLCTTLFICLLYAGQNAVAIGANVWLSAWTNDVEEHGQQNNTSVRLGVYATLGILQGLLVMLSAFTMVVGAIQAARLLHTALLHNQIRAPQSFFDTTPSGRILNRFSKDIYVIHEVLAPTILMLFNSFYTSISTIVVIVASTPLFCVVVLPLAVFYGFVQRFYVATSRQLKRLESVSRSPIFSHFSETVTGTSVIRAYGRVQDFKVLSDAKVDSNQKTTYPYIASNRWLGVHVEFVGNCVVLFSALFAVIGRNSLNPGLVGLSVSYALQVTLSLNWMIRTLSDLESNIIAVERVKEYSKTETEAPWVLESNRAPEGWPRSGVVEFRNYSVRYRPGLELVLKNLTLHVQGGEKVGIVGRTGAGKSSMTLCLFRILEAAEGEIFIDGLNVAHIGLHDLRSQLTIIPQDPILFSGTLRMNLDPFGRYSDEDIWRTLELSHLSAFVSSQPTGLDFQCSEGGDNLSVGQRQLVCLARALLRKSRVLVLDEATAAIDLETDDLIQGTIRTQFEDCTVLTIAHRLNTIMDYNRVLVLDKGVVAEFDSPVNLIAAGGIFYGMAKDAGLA

[3] = biological target: T1, ATP-binding cassette sub-family C member 2; test: (§2) TP_TRANSPORTER: quantitative PCR in vivo, kidney of SD rat
[4] = biological target: T3, ATP-binding cassette subfamily C member 4 (Rattus norvegicus, UniProt F1M3J4); test: as §2
T3 sequence (F1M3J4 whole entry): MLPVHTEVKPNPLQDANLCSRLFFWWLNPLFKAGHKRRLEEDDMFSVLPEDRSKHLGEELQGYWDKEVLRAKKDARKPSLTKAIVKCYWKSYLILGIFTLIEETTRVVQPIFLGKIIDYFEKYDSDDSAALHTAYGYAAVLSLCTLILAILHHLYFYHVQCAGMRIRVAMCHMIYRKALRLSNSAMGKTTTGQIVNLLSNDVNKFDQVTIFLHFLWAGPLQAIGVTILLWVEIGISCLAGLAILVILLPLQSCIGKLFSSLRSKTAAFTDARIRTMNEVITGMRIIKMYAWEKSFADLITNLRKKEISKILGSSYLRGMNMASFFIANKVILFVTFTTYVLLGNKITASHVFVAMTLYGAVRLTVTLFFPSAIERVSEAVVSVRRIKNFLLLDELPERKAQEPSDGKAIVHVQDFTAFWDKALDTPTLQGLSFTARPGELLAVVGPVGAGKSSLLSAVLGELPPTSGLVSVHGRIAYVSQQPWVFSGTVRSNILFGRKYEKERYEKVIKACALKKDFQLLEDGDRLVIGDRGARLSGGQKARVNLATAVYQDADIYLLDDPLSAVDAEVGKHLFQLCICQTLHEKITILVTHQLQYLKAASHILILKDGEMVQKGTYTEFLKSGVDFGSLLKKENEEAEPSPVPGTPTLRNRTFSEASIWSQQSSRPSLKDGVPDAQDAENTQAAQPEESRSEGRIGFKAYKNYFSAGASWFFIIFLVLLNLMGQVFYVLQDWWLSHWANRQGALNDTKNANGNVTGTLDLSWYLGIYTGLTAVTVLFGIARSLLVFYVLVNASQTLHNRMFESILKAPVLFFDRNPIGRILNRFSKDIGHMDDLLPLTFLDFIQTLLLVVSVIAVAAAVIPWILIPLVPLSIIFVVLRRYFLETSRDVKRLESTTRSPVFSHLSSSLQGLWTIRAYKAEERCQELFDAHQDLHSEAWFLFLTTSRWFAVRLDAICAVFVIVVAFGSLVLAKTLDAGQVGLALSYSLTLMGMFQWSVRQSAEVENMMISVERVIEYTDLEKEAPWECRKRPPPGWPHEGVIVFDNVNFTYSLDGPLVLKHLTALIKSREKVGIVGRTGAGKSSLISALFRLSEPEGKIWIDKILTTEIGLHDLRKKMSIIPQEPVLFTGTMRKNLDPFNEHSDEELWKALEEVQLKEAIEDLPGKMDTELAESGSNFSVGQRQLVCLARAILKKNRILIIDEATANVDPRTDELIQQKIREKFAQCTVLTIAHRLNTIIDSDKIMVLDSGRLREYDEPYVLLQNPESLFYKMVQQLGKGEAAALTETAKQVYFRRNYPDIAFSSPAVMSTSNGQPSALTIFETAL

[5] = biological target: T2, ATP-binding cassette sub-family C member 3; test: as §2
[6] = biological target: T3, ATP-binding cassette subfamily C member 4; test: (§3) TP_TRANSPORTER: quantitative PCR in vivo, liver of SD rat
[7] = biological target: T2, ATP-binding cassette sub-family C member 3; test: as §3
[8] = biological target: T1, ATP-binding cassette sub-family C member 2; test: as §3

Measured: Activity

T1 sequence (Q63120 whole entry): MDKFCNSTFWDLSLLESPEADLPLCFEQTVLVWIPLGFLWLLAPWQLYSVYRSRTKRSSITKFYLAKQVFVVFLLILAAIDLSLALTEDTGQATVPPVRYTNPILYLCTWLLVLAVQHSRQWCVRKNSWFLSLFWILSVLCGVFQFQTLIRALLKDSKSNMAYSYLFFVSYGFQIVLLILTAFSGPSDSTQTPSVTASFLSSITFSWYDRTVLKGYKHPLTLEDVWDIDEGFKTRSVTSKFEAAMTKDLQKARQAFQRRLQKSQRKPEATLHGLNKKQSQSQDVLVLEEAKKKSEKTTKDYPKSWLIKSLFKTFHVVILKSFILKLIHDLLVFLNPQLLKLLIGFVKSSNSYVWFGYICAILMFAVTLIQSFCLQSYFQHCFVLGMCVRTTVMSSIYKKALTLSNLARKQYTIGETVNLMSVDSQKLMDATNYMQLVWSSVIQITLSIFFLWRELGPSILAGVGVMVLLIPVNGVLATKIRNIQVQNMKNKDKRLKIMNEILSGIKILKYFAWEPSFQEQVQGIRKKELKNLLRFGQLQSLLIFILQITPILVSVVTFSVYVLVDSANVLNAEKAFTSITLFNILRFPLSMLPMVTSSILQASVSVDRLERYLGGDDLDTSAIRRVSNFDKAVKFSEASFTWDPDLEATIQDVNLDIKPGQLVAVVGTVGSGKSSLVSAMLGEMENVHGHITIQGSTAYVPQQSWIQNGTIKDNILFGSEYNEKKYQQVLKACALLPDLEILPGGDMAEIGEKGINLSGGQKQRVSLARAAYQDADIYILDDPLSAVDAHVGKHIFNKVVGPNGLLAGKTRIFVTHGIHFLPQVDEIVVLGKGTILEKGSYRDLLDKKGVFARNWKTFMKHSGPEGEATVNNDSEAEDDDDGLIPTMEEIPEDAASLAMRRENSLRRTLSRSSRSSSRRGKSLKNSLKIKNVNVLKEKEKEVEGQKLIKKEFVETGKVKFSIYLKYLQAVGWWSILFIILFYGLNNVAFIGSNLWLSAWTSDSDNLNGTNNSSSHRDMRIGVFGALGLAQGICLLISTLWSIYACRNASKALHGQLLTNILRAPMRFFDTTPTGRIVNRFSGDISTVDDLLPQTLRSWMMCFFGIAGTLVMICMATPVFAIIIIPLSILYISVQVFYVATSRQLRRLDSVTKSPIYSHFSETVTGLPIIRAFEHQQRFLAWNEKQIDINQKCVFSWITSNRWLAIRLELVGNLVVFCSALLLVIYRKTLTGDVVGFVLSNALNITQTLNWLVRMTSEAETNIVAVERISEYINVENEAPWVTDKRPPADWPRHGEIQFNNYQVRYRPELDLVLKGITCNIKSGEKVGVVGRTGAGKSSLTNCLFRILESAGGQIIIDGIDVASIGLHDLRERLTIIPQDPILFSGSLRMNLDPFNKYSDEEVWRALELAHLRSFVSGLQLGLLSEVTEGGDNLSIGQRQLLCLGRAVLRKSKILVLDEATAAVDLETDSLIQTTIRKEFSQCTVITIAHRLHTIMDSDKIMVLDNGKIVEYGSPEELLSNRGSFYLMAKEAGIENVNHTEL

C=CCSCC=C [DIALLYL SULFIDE]
inducer []: [1] | [2] | [3] | [4] | [5] | [6] | [7]

CCC1(c2ccccc2)C(=O)NC(=O)NC1=O [PHENOBARBITAL]
inducer []: [2] | [7]

Cc1c(-c2cnccn2)ssc1=S [OLTIPRAZ]
inducer []: [1] | [2] | [5] | [8] | [7]

c1ccc([C@H]2O[C@@H]2c2ccccc2)cc1 (relative stereo)
inducer []: [1] | [2] | [8] | [6] | [7]
